Values quoted from earlier work, collected in patent US8173361B2, “Method of determining metabolism of a test agent” (The General Hospital Corporation, priority 2003, dated 2012).

Details: treatment of chronic hepatitis B; clinical tests suspended

O=c1[nH]c(=O)n([C@@H]2O[C@H](CO)[C@@H](O)[C@@H]2F)cc1I [fialuridine]
drug-related toxicity in clinical tests: drug-related liver failure leading to death in some patients
